{"source": "patent US20150320773A1", "about": "“TREATMENT OF INFLAMMATION” (Vascular Biogenics Ltd., priority 2011, published 2015)", "key": {"TLR2": {"target": "TLR2 (Homo sapiens, UniProt O60603)", "sequence (O60603 21-784)": "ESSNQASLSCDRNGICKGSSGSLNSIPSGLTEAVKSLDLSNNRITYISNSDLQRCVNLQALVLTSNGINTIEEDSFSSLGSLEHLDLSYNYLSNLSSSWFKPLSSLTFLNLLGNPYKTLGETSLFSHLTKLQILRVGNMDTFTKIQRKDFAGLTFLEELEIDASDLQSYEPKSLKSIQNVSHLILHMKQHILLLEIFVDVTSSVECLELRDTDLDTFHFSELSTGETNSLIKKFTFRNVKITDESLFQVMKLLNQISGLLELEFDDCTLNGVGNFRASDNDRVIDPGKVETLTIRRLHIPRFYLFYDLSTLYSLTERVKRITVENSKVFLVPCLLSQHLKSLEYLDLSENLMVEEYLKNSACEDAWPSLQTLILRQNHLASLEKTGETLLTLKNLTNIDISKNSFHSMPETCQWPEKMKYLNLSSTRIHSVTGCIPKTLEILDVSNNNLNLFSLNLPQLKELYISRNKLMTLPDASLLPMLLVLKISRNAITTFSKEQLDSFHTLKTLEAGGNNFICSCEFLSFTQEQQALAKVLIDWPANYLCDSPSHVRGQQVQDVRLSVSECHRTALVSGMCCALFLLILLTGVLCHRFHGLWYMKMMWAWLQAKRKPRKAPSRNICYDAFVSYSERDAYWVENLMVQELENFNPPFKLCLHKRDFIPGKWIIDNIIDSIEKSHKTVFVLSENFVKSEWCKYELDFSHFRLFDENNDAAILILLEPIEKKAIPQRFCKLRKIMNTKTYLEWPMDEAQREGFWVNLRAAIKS", "settings": "1 μM SAA, 5 μg/ml VB-201"}, "[1]": {"tested_on": "phosphorylation of Akt, MEK1/2, ERK1/2 and p38 in human monocytes", "settings": "stimulation with MCP-1, MIP-1α or RANTES; shown in WO 2011/083469; cited from earlier work"}, "TLR4": {"target": "TLR4 (Homo sapiens, UniProt O00206)", "sequence (O00206 24-839)": "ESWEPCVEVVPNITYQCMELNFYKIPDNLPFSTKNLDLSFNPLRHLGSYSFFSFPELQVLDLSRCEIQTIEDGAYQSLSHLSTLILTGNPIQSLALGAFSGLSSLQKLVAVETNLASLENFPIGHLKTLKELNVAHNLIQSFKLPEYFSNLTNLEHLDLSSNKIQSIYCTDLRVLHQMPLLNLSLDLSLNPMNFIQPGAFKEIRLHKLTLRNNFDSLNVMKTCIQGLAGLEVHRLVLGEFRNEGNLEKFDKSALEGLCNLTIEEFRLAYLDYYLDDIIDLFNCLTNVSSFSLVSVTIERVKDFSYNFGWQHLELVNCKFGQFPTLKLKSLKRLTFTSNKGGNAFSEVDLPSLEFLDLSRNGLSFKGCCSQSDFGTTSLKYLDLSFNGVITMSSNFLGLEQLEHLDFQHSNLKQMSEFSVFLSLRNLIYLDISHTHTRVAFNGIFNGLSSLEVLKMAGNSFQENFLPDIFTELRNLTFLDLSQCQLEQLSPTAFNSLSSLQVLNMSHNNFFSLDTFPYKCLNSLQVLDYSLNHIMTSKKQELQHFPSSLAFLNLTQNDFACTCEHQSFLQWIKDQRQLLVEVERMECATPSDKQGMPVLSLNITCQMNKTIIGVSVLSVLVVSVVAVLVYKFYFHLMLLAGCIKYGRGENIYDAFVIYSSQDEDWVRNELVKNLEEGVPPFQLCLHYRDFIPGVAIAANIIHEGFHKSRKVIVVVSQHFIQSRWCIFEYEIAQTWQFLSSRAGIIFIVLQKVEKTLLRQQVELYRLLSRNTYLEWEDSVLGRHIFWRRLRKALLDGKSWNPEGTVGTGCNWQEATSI", "sequence (Q9Y6Y9 17-160 partner limits assumed)": "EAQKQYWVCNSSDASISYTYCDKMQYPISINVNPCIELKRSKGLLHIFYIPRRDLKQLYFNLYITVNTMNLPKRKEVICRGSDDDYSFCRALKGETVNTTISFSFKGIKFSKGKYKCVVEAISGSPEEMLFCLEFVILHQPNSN", "settings": "human monocytes; LPS; 1.7, 8.5 or 17 μM"}, "CD4+ T-cells": {"tested_on": "CD4+ T-cells", "assay": "Chemotaxis assay of CD4+ T-cells", "settings": "5 μg/ml; RANTES (100 ng/ml) and SDF-1α (50 ng/ml)", "description": "Human monocytes (CD14+ cells) and CD4+ T-cells were isolated from whole blood of healthy donors. Following PBMCs separation from whole blood using Ficoll-Paque and leucosep tubes (Greiner Bio-One), CD14+/CD4+ cells were separated using specific anti-CD14/anti-CD4 micro beads, respectively (Miltenyi Biotech). Purity of the isolated populations was validated using specific antibodies by FACS analysis. […] For chemo-attraction of monocytes, RANTES (100 ng/ml), MIP-1α (50 ng/ml) or MCP-1 (50 ng/ml) were dissolved in 0.5% fetal bovine serum(FBS)/RPMI-1640 medium and placed at the lower chamber of QCM™ 24-well migration assay plate (Corning-Costar; 5 μm pores). For chemo-attraction of CD4+ cells, 0.5% FBS/RPMI-1640 solution containing RANTES (100 ng/ml) and SDF-1α (50 ng/ml) was used, using the same plate setting. Migration assay was conducted by seeding 300,000 treated cells in the upper chamber, followed by incubation of 3-4 hours. Subsequently, the number of cells which migrated to the medium in the lower compartment was determined by FACS."}, "[2]": {"tested_on": "Human monocyte-derived dendritic cells (DCs)", "assay": "cAMP accumulation assay", "type": "cell-based", "settings": "4 hours; VB-201 1-5 μg/ml; oxidized PAPC escalating doses; forskolin positive control", "experimental": "Cells were incubated for 4 hours at 37° C. in the presence of the phosphodiesterase inhibitors IBMX (Calbiochem; 0.5 mM) and RO-20-1724 (Biomol; 0.5 mM) to prevent cAMP degredation. For the quantification of [^3H]cAMP formation, the incubation was terminated by removal of the medium and addition of 2.5% perchloric acid containing 0.1 mM unlabeled cAMP (Sigma), followed by neutralization with 4.2 M KOH and 1.85 M K2CO3."}, "[3]": {"tested_on": "G-coupled protein receprors (GPRC)", "assay": "Selectivity: effect on activity of additional proteins"}, "TLR9": {"target": "TLR9 (Mus musculus, UniProt Q9EQU3)", "sequence (Q9EQU3 26-1032)": "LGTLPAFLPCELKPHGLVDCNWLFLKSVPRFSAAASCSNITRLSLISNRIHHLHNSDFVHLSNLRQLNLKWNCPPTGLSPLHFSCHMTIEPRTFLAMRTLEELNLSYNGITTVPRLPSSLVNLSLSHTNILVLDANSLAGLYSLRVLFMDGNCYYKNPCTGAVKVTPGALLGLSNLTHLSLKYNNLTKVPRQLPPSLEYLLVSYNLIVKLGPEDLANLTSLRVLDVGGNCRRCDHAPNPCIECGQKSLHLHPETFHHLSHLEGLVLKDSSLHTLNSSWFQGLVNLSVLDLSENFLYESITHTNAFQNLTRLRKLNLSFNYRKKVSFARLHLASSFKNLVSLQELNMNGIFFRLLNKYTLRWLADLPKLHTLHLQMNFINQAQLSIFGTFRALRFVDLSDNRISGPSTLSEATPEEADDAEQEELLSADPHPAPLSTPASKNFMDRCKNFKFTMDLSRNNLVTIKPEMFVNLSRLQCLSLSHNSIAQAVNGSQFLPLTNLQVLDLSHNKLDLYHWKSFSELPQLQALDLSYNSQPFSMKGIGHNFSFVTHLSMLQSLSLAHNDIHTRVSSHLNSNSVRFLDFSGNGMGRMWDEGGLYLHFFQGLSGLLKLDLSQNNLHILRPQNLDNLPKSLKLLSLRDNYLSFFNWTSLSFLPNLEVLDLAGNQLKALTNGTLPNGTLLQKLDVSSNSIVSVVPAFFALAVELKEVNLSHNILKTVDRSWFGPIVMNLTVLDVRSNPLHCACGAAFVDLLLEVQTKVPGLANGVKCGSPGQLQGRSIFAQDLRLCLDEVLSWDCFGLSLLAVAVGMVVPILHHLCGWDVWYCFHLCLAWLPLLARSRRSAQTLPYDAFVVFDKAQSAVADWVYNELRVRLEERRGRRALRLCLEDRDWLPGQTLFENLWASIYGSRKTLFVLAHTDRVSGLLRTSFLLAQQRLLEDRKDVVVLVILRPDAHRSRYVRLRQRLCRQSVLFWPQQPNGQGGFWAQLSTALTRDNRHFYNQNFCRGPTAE", "settings": "mouse BMDCs; CpG; 1.7, 8.5 or 17 μM"}, "TLR5": {"target": "TLR5 (Homo sapiens, UniProt O60602)", "sequence (O60602 21-858)": "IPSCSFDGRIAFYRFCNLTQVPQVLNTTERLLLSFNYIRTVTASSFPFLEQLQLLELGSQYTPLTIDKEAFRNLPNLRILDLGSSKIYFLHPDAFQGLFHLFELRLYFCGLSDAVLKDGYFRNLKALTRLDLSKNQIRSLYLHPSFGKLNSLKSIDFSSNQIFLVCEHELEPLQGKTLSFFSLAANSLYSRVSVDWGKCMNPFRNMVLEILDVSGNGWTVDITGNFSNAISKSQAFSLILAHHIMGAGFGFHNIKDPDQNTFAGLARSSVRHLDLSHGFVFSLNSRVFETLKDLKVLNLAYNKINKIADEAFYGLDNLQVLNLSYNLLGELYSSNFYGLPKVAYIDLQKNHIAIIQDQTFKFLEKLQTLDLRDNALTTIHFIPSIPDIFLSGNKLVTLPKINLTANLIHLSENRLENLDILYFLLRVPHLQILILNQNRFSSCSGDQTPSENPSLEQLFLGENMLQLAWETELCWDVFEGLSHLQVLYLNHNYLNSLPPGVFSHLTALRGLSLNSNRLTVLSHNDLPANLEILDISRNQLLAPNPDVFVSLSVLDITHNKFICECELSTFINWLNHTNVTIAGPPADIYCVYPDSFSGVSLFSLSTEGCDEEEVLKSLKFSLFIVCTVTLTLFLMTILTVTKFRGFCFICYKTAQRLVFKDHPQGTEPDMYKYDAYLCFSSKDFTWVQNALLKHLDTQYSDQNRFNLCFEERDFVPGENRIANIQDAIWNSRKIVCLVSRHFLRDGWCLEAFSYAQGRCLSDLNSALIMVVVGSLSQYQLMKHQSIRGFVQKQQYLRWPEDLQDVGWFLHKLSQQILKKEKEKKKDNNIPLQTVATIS", "settings": "human monocytes; flagellin; 1.7, 8.5 or 17 μM"}, "C57B6J WT mice": {"tested_on": "C57B6J WT mice", "assay": "Thioglycollate-induced peritonitis model (monocyte migration in vivo)", "design": "species or system mouse", "settings": "oral", "experimental": "After 5 days of administration, thioglycollate was injected to the peritoneal cavity of the mice to induce monocyte migration. Four days later, mice were sacrificed and migrating cells were collected from the peritoneum and counted by hemocytometer. Data are mean±SE, collected from 3-4 independent experiments. […] FIG. 26B is a FACS analysis. To characterize their identity, migrating cells were stained with the macrophage marker F4/80 and the neutrophils marker GR-1.\nIn this model, injection of thioglycollate to the peritoneal cavity induces a “sterile” inflammatory response recruiting peripheral monocytes to the peritoneum, where they differentiate into macrophages (Li, Y. M., et al., J. Immunol. Methods. 1997; 201:183-188). […] Upon sacrifice, the number and identity of the cells accumulating in the peritoneum was determined by FACS, and plasma samples were taken for quantification by Liquid Chromatography-Tandem Mass Spectrometry. Three days after thioglycollate injection 95% of the cells in the peritoneum were macrophages (F4/80 positive, GR-1 negative cells) (FIG. 26B)."}}, "note": "Read-outs that look alike come from different tables or passages of the source.", "data": [{"compound": "CCCCCCCCCCCCCCCCOC[C@H](COP(=O)([O-])OCC[N+](C)(C)C)OCCCCC(=O)O", "note": "[VB-201, (R)-1-hexadecyl-2-(4′-carboxyl)butyl-sn-glycero-3-phosphocholine]", "values": [{"measurement": "activation of p38, ERK1/2 and the NFκB pathway following activation of TLR2 by serum amyloid A", "setting": "TLR2; THP-1 cells", "result": "inhibited activation of p38, ERK1/2 and the NFκB pathway"}, {"measurement": "activation of p38, ERK1/2 and the NFκB pathway following activation of TLR2 by serum amyloid A", "setting": "TLR2; human CD14+ cells", "result": "inhibited activation of p38, ERK1/2 and the NFκB pathway"}, {"measurement": "ERK1/2 phosphorylation and MEK1/2 phosphorylation", "setting": "[1]", "result": "inhibition by VB-201 of ERK1/2 phosphorylation and MEK1/2 phosphorylation"}, {"measurement": "activation of p38, ERK1/2 and the NFκB pathway following activation of TLR4", "setting": "TLR4", "result": "inhibited activation of p38, ERK1/2 and the NFκB pathway in a dose-dependent manner"}, {"measurement": "CD4 cell chemotaxis", "setting": "CD4+ T-cells", "result": "unable to find any inhibition"}, {"measurement": "intracellular cAMP levels", "setting": "[2]", "result": "not affected"}, {"measurement": "agonistic or antagonistic effect on G-coupled protein receprors (GPRC)", "setting": "[3]", "result": "no agonistic or antagonistic effect"}, {"measurement": "p38 phosphorylation following activation of TLR9", "setting": "TLR9", "result": "no apparent effect"}, {"measurement": "activation of p38, ERK1/2 and the NFκB pathway following TLR5 activation", "setting": "TLR5", "result": "no apparent effect"}, {"measurement": "inhibition of peritoneal macrophage accumulation", "setting": "C57B6J WT mice; 0.04 mg/kg/day", "result": "no inhibitory effect"}, {"measurement": "inhibition of peritoneal macrophage accumulation", "setting": "C57B6J WT mice; 0.4 mg/kg", "result": "~25", "unit": "%"}, {"measurement": "reduction in the number of peritoneal macrophages relative to PBS-treated animals", "setting": "C57B6J WT mice; 4 mg/kg", "result": "> 60", "unit": "%"}]}]}
